According to patent publication US20210247400A1, “ACTIVATION OF PATTERN-TRIGGERED IMMUNITY IN PLANTS BY LIPOOLIGOSACCHARID-SPECIFIC REDUCED ELICITATION (LORE) AND VARIANTS THEREOF” (Technische Universität München, priority 2018, published 2021):

Experiments:
LORE [1] = biological target: T1, LORE (Arabidopsis thaliana, UniProt O64782); assay: Aequorin luminescence measurements of [Ca^2+]cyt elevations in Arabidopsis seedlings; type: cell-based; settings: for elicitor activity ([Ca^2+]cyt response): 5 μM, Col-0^AEQ or lore-1 seedlings, FIG. 2H-J
T1 construct: aequorin-expressing wild-type (Col-0^AEQ) or lore-1 mutant seedlings; endogenous in cells; host or cells: Arabidopsis thaliana Col-0 / Col-0^AEQ seedlings and leaf discs
T1 sequence (O64782 22-805): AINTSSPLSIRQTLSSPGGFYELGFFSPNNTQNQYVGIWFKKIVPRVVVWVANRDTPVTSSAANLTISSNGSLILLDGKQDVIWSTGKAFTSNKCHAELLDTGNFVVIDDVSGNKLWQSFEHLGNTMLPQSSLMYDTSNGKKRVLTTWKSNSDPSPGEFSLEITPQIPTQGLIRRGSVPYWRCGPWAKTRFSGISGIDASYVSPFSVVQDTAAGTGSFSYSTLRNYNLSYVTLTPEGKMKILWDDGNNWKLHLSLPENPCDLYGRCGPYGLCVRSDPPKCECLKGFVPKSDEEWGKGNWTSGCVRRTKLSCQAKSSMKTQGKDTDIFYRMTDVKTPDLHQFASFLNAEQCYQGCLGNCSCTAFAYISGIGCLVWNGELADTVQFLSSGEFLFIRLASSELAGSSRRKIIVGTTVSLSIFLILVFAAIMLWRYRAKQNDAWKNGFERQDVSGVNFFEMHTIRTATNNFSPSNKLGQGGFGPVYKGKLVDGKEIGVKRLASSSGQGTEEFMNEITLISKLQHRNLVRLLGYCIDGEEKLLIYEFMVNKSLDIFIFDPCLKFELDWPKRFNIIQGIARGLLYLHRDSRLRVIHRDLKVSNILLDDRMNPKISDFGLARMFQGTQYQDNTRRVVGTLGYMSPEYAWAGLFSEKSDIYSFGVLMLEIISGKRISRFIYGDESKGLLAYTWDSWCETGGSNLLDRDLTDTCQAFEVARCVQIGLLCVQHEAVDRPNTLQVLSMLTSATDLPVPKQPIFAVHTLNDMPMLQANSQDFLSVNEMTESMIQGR
Method: Aequorin luminescence measurements were performed essentially as described (Ranf et al., 2012). In short, 8- to 10-days-old liquid-grown apoaequorin-expressing seedlings were placed individually in 96-well plates in MP-dH2O containing 5-10 μM coelenterazine-h (p.j.k. GmbH) in the dark overnight. Luminescence was recorded by scanning 2 rows in 10 sec intervals using a Luminoskan Ascent 2.1 (Thermo Scientific). Remaining aequorin was discharged by addition of 150 μl 2 M CaCl2) with 20% EtOH per well. [Ca^2+]cyt concentrations were calculated as L/Lmax (luminescence counts per sec/total luminescence counts remaining).

AtMPK3 and AtMPK6 = assay: Immunoblot analysis of MAPK activation; type: cell-based, Arabidopsis thaliana; settings: 5 μM, seedlings, FIG. 1H
Method: MAPK activation was elicited in 14-days-old liquid-grown seedlings as described (Ranf et al., 2015) by adding MAMPs to the final concentrations indicated. […] Proteins were extracted in kinase extraction buffer containing 50 mM Tris/HCl pH 7.5, 100 mM NaCl, 20 mM EGTA, 30 mM beta-glycerophosphate, 30 mM 4-p-Nitrophenylphosphate, 4 mM NaF, 4 mM Na3VO4, 4 mM Na2MoO4, 10 mM DTT, 0.2% Tween 20, and 1× plant protease inhibitor cocktail P9599 (Sigma-Aldrich). […] total protein (according to Bradford Protein Assay, Bio-Rad) was separated by standard SDS polyacrylamide gel-electrophoresis (Mini-PROTEAN Tetra Cell, Bio-Rad) and blotted onto nitrocellulose membrane (Amersham™ Protran™ 0.2 μm NC, GE Healthcare) using a Trans-Blot® SD Semi-Dry Transfer Cell (Bio-Rad). Membranes were blocked in Protein-Free TBS Blocking Buffer (Pierce™) and immunostained with anti-phospho-MPK antibody (anti-phospho-p44/42-ERK, 1:1000, Cell Signaling Technology #9101) and anti-rabbit-IgG-peroxidase conjugate (A9169, 1:50000, Sigma-Aldrich) using SuperSignal™ West Dura Extended Duration Substrate (Thermo Scientific). ECL chemiluminescence was detected using a Fusion SL camera (Vilber Lourmat). Membranes were stained with Amido black to assess equal protein loading.

Pst DC3000 = assay: Induced resistance assay in Arabidopsis plants; type: in vivo, Pseudomonas syringae pv. tomato; settings: FIG. 1J
Method: After two or three days Pst DC3000 was syringe infiltrated into leaves 4 and 5 of the pretreated plants at 1×10^5 CFU/ml. Bacterial growth in infected leaves was determined 4 days later as described (Vlot et al., 2008). Statistical analysis (one-way analysis of variance, ANOVA, with Tukey's multiple comparison post-test) was applied separately for wild type and mutant plants using GraphPad Prism 7.0.

LORE [2] = biological target: T1, LORE; assay: PTI in Arabidopsis (biological assays, LORE dependence); type: cell-based; settings: for elicitor activity / PTI responses / early PTI signalling reactions: 5 μM, [Ca^2+]cyt and ROS; for elicitor activity: FIG. 3B-E, FIG. 6B; for PTI responses ([Ca^2+]cyt signalling, ROS production, defence gene induction, MAPK activation; ROS in LORE-GFP-expressing N. benthamiana): FAs 1-5 μM, compared to mc-3-OH-FAs, FIG. 2A-G; for PTI responses: FIG. 3A,B; for early PTI signalling reactions: short-term exposure, FIG. 4D-E
AtFRK1 and AtNHL10 = assay: Gene expression analysis (quantitative PCR of defence genes); settings: 1 μM, four hours after elicitation, seedlings, FIG. 1G
LORE [3] = biological target: T1, LORE; assay: ROS detection in Arabidopsis leaves (leaf discs); type: cell-based; settings: 5 μM, leaf discs Col-0 or lore-5, FIG. 2D
Method: ROS production was monitored as described (Ranf et al., 2015) in 3 mm leaf discs from 6-8 weeks-old soil-grown plants in 100 μl 5 μM L-012 (WAKO chemicals) and 2 μg/ml horseradish peroxidase (Type II, Roche) in MP-dH2O. For experiments including 4-OH-10:0 (19) and 5-OH-10:0 (20), 10 mM Tris pH 8 was added to the L-012/HRP mix. Luminescence was recorded as relative light units (RLU) in 1 min intervals using a Luminoskan Ascent 2.1 (Thermo Scientific) or a Tecan F200. After 10 min background reading, elicitors were added to the final concentrations indicated and luminescence readings continued over 45-60 min. Data are depicted after normalization to average ROS levels 5 min before elicitor application and subtraction of water or MeOH controls that were included for each genotype on the same plate.

[4] = wild-type Arabidopsis plants pre-treated with 10 μM, titre at 4 dpi
[5] = sample conc. used for biological assays 1 μM-5 μM (mostly)
[6] = sample conc. used for biological assays 5 μM

SMILES: CCCCCCCC(O)CC(=O)O (racemic) [Compound 1, 3-hydroxydecanoic acid]
- [Ca^2+]cyt elevations (LORE [1]; Col-0^AEQ seedlings, different concentrations (nanomolar to micromolar range), FIG. 1C): sufficient to elicit [Ca^2+]cyt elevations
- phosphorylation of AtMPK3 and AtMPK6 (AtMPK3 and AtMPK6): phosphorylation of mitogen-activated protein kinases (MAPK), AtMPK3 and AtMPK6
- systemic resistance to infection with Pst DC3000 (Pst DC3000; lore-1 mutant plants pre-treated with 10 μM): systemic resistance was not activated
- systemic resistance to infection with Pst DC3000 (Pst DC3000; [4]): more resistant to subsequent infection with virulent Pst DC3000
- elicitor activity (LORE [2]): strongest elicitor activity
- LORE-dependent (LORE [2]; [5]): Yes
- PTI in Arabidopsis (LORE [2]; [5]): Yes
- LORE-dependent (LORE [2]; [6]): Yes
- PTI in Arabidopsis (LORE [2]; [6]): Yes
- [Ca^2+]cyt or ROS signals (LORE [2]; subsequent application after mc-3-OH-FA-depleted LPS, FIG. 4A-C, FIG. 5): typical [Ca^2+]cyt or ROS signals were induced
- transcript accumulation of PTI response genes AtFRK1 and AtNHL10 (AtFRK1 and AtNHL10): induced transcript accumulation

SMILES: CCCCCCCCCCCC(O)CC(=O)O (racemic) [Compound 7, 3-hydroxytetradecanoic acid]
- systemic resistance to infection with Pst DC3000 (Pst DC3000; [4]): did not establish systemic resistance to bacterial infection
- PTI signalling (LORE [2]; FIG. 1D-H): did not induce PTI signalling

SMILES: CCCCCCCCCC(=O)NC1CCOC1=O (racemic) [Compound 43, N-Decanoyl-DL- homoserine lactone]
- PTI in Arabidopsis (LORE [2]; [6]): No

SMILES: CCCCCCC/C=C\C(=O)O [Compound 17, (Z)-dec-2-enoic acid]
- PTI responses ([Ca^2+]cyt signalling, ROS production, defence gene induction, MAPK activation; ROS in LORE-GFP-expressing N. benthamiana) (LORE [2]): weak and independent of LORE

SMILES: CCCCCCC/C=C/C(=O)O [Compound 18, (E)-dec-2-enoic acid]
- PTI responses ([Ca^2+]cyt signalling, ROS production, defence gene induction, MAPK activation; ROS in LORE-GFP-expressing N. benthamiana) (LORE [2]): weak and independent of LORE

SMILES: CCCCCCC(O)CCC(=O)O (stereo not drawn) [Compound 19, 4-hydroxydecanoic acid]
- LORE-dependent ROS production (LORE [3]): did not elicit LORE-dependent ROS production

SMILES: CCCCCC(O)CCCC(=O)O (stereo not drawn) [Compound 20, 5-hydroxydecanoic acid]
- LORE-dependent ROS production (LORE [3]): did not elicit LORE-dependent ROS production

SMILES: CCCCCCCC(Cl)CC(=O)OC (stereo not drawn) [Compound 22, methyl 3-chlorodecanoate]
- elicitor activity ([Ca^2+]cyt response) (LORE [1]): abolished elicitor activity

SMILES: CCCCCCCC(=O)CC(=O)O [Compound 23, 3-oxodecanoic acid]
- elicitor activity ([Ca^2+]cyt response) (LORE [1]): induced a moderate LORE-dependent [Ca^2+]cyt response

SMILES: CCCCCCCC(CC(=O)O)OC (stereo not drawn) [Compound 24, 3-methoxydecanoic acid]
- elicitor activity ([Ca^2+]cyt response) (LORE [1]): abolished elicitor activity

SMILES: CCCCCCCC(CC(=O)O)OC(C)=O (stereo not drawn) [Compound 25, 3-acetoxydecanoic acid]
- elicitor activity ([Ca^2+]cyt response) (LORE [1]): abolished elicitor activity

SMILES: CCCCCCCC(O)CC (stereo not drawn) [Compound 27, decan-3-ol]
- PTI responses (LORE [2]): neither 3-decanol nor 1,3-decandiol elicited PTI responses

SMILES: CCCCCCCC(O)CCO (stereo not drawn) [Compound 28, decane-1,3-diol]
- PTI responses (LORE [2]): neither 3-decanol nor 1,3-decandiol elicited PTI responses

SMILES: CCCCCCCC(O)CC(=O)OC(C)(C)C (stereo not drawn) [Compound 30, tert-butyl-3-hydroxydecanoate]
- elicitor activity (LORE [2]): inactive

SMILES: CCCCCCCC(O)CC(=O)N[C@H]1CCOC1=O (stereo partly drawn) [Compound 41, N-(3-Hydroxydecanoyl)-L-homoserine lactone]
- early PTI signalling reactions (LORE [2]): did not elicit significant early PTI signalling reactions
- PTI in Arabidopsis (LORE [2]; [6]): No

SMILES: CCCCCCCC(=O)CC(=O)N[C@H]1CCOC1=O [Compound 42, N-(3-Oxodecanoyl)-L-homoserine lactone]
- early PTI signalling reactions (LORE [2]): did not elicit significant early PTI signalling reactions
- PTI in Arabidopsis (LORE [2]; [6]): No

SMILES: CCCCCCC[C@@H](O)CC(=O)O [Compound 44, (R)-3-hydroxydecanoic acid]
- immune signalling ([Ca^2+]cyt elevations) (LORE [1]; different concentrations, Arabidopsis seedlings, FIG. 6A): induced stronger immune signalling than (S)-3-OH—C10:0 (45)
